In US10709653B2, “Cosmetic compositions comprising spiculisporic acid and at least one sulfate and/or sulfonate surfactant” (L'OREAL, priority 2013, dated 2020):
Read-outs that look alike come from different tables or passages of the source.

What was measured:
[1] = cited from earlier work
[2] = Aspect and pH on storage of S-acid solutions salified with KOH, Arg or TEA with sulfate or sulfonate surfactant (Example 3); assay type: physicochemical; parameters: key to Aspect (macroscopic observation) 15 days 4° C. / Aspect (macroscopic observation) 15 days RT: *: showed a precipitate; conditions: S-acid 4.00% MA
Method: The compositions of Table 3 above were prepared according to the following operating procedure:
Phase A was heated to 40° C. After solubilization of the S-acid, the phase B was added to the Phase A. Next, the phase C was added after phase B.
A portion of the solution was stored at room temperature and the other one at 4° C.

[3] = Aspect and pH on storage of spiculisporic acid solutions pre-solubilized with KOH, alone or with surfactants (Example 2); assay type: physicochemical
Source text: Solutions containing the S-acid at 4% or 8% (neutralized with an amount of KOH calculated so as to obtain the di-potassium salt of S-acid, i.e. R1=2) and surfactants, were made.

[4] = sulfate surfactant 4.00% MA, base Arg, R 1.10
[5] = sulfate surfactant 4.00% MA, base Arg, R 1.25
[6] = sulfate surfactant 4.00% MA, base Arg, R 1.75
[7] = sulfate surfactant 4.00% MA, base Arg, R 2.00
[8] = sulfate surfactant 4.00% MA, base KOH, R 2.00
[9] = sulfate surfactant 4.00% MA, base TEA, R 1.10
[10] = sulfate surfactant 4.00% MA, base TEA, R 1.25
[11] = sulfate surfactant 4.00% MA, base TEA, R 1.75
[12] = sulfate surfactant 4.00% MA, base TEA, R 2.00
[13] = sulfonate surfactant 4.00% MA, base Arg, R 1.10
[14] = sulfonate surfactant 4.00% MA, base Arg, R 1.25
[15] = sulfonate surfactant 4.00% MA, base Arg, R 1.75
[16] = sulfonate surfactant 4.00% MA, base Arg, R 2.00
[17] = sulfonate surfactant 4.00% MA, base KOH, R 2.00
[18] = sulfonate surfactant 4.00% MA, base TEA, R 1.10
[19] = sulfonate surfactant 4.00% MA, base TEA, R 1.25
[20] = sulfonate surfactant 4.00% MA, base TEA, R 1.75
[21] = sulfonate surfactant 4.00% MA, base TEA, R 2.00
[22] = S-acid 4% MA, KOH (R=2), named surfactant 4% if any

- pH 15 days 4° C. [2, 4]: 5.19
- pH 15 days RT [2, 4]: 5.11
- pH 15 days 4° C. [2, 5]: 5.33
- pH 15 days RT [2, 5]: 5.34
- pH 15 days 4° C. [2, 6]: 5.93
- pH 15 days RT [2, 6]: 5.95
- pH 15 days 4° C. [2, 7]: 6.25
- pH 15 days RT [2, 7]: 6.21
- Aspect (macroscopic observation) 15 days 4° C. [2, 8]: *
- Aspect (macroscopic observation) 15 days RT [2, 8]: *
- pH 15 days 4° C. [2, 8]: 6.24
- pH 15 days RT [2, 8]: 6.33
- pH 15 days 4° C. [2, 9]: 5.26
- pH 15 days RT [2, 9]: 5.19
- pH 15 days 4° C. [2, 10]: 5.38
- pH 15 days RT [2, 10]: 5.39
- pH 15 days 4° C. [2, 11]: 6.02
- pH 15 days RT [2, 11]: 5.98
- pH 15 days 4° C. [2, 12]: 6.32
- pH 15 days RT [2, 12]: 6.32
- pH 15 days 4° C. [2, 13]: 5.07
- pH 15 days RT [2, 13]: 5.00
- pH 15 days 4° C. [2, 14]: 5.28
- pH 15 days RT [2, 14]: 5.27
- pH 15 days 4° C. [2, 15]: 5.89
- pH 15 days RT [2, 15]: 5.93
- pH 15 days 4° C. [2, 16]: 6.19
- pH 15 days RT [2, 16]: 6.18
- Aspect (macroscopic observation) 15 days 4° C. [2, 17]: *
- pH 15 days 4° C. [2, 17]: 6.34
- pH 15 days RT [2, 17]: 6.43
- pH 15 days 4° C. [2, 18]: 5.22
- pH 15 days RT [2, 18]: 5.17
- pH 15 days 4° C. [2, 19]: 5.37
- pH 15 days RT [2, 19]: 5.33
- pH 15 days 4° C. [2, 20]: 5.96
- pH 15 days RT [2, 20]: 5.97
- pH 15 days 4° C. [2, 21]: 6.34
- pH 15 days RT [2, 21]: 6.33
- pH t0 RT ([3]; S-acid 4% MA, KOH (R=2), named surfactant 4% active material if any): 5.97
- pH 20 days after storage T = 4° C. [3, 22]: 6.01
- pH 20 days after storage RT [3, 22]: 6.02
- Aspect after 20 days of storage at 4° C. ([3]; S-acid 4%, KOH (R=2), surfactant 4% if any): precipitation
- pH 20 days after storage T = 4° C. ([3]; S-acid 8% MA, KOH (R=2)): 6.47
- pH 20 days after storage RT ([3]; S-acid 8% MA, KOH (R=2)): 6.47
- pH t0 RT ([3]; S-acid 8% MA, neutralized with KOH (R=2)): 6.43
- Aspect after 20 days of storage at 4° C. ([3]; S-acid 8%, KOH (R=2)): precipitation
SMILES: CCCCCCCCCCC(C(=O)O)C1(C(=O)O)CCC(=O)O1 (stereo not drawn) [S-acid, 4,5-dicarboxy-4-pentadecanolide]
- Solubility in water ([1]; high temperature): partly soluble
- Solubility in ethanol ([1]; room temperature): soluble
- Solubility in fats ([1]; room temperature): insoluble
- Solubility in water ([1]; room temperature): insoluble
